Laboratory results from patent publication US9932300B2, “N,N′-diarylurea compounds and N,N′-diarylthiourea compounds as inhibitors of translation initiation” (President and Fellows of Harvard College, priority 2009, dated 2018).
Where “and” joins values, the source holds several entries; their conditions need not be identical. Equal entries are not always repeated.

Test system: eIF2-GTP-Met-tRNAi ternary complex
Assay: Ternary complex assay (dual luciferase, firefly/renilla ratio) in stable KLN-tTA/pBISA-DL(ATF-4) cells; HTS and hit confirmation
Assay type: cell-based, mouse
Set-up: Activity 10 uM / Activity 2.5 uM / Activity 5 uM: unit not given here
Conditions: for Activity 5 uM: compound at 5 uM; for Activity 5 uM / Activity 10 uM / Activity 2.5 uM: confirmed hits of the screen (Table 5); for Activity 10 uM: compound at 10 uM; for Activity 2.5 uM: compound at 2.5 uM

Row | SMILES | Activity 5 uM | Activity 10 uM | Activity 2.5 uM | Active or inactive N,N′-diarylurea (ternary complex assay) (designation in figure legend)
1 | CN1N=C([P+](c2ccccc2)(c2ccccc2)c2ccccc2)CC1(c1ccccc1)c1ccccc1.[I-] [Compound 135744] | 7 | 21.9 |  | 
2 | O=C1C(c2ccc([N+](=O)[O-])cc2)=C(Cl)C(=O)c2c(O)cccc21 [Compound 656075] |  | 7.97 | 2.33 | 
3 | S=c1nccc[nH]1.[Pd] [Compound 321197] | 5.014 | 5.0845 |  | 
4 | CCOc1ccc2c(c1)/C(=C\C=C\C1CC(C)C3CC(OCC)CCC3N1CC)CC(C)N2CC (stereo not shown) [Compound 403534] |  | 9.9 | 7.33 | 
5 | O=C(N/N=C/c1ccccc1O)c1ccccc1.[Cu+2] [Compound 607085] |  | 3.55 | 2.21 | 
6 | [Hg+][c]1ccccc1.[O-]B(O)O [Compound 163948] |  |  | 5.67 | 
7 | CN(C)c1ccc(/C=C2\CCCCCC2=O)cc1 [Compound 689962] | 4.784 | 7.987 |  | 
8 | O=C(Nc1ccc(Cl)c(C(F)(F)F)c1)Nc1ccc2nnsc2c1 [Compound 1780] |  |  |  | active
9 | COc1ccc(NC(=O)Nc2ccccc2Cl)c(Cl)c1 [Compound 191346] | 3.018 | 4.4055 |  | 
10 | Cc1ccc(NC(=O)c2cc3ccccc3cc2O)c(C)c1.Cc1ccc(NC(=O)c2cc3ccccc3cc2O)c(C)c1.[Mn+2] [Compound 306697] |  | 19.5 | 1.77 | 
11 | COc1cccc2c1OC(c1ccc(C#N)cc1)C([N+](=O)[O-])=C2 (stereo not shown) [Compound 667226] |  | 4.79 | 0.34 | 
12 | CNC(=S)N/N=C/c1nccc(-c2ccccc2)c1C [Compound 262421] |  | 107.79 | 24.56 | 
13 | CCOC(=N)c1cn(C2OC(CO)C(O)C2O)c2nc[nH]c(=O)c12.Cl (stereo not shown) [Compound 128665] |  | 3.18 | 17.83 | 
14 | C(=P(c1ccccc1)(c1ccccc1)c1ccccc1)[P+](c1ccccc1)(c1ccccc1)c1ccccc1.[Br-] [Compound 74740] | 5.6 | 4.1 |  | 
15 | Cc1cc(/C=N/Nc2ccc3ccccc3n2)c(O)c2ncccc12 [Compound 94029] | 1.934 | 3.2135 |  | 
16 | COc1ccc(C2=Cc3ccc(OC(C)=O)cc3OC2)cc1 [Compound 99696] | 3.031 | 3.4275 |  | 
17 | O=C(O)c1ccc(/C=N\Nc2ccccc2)cc1 [Compound 227290] | 5.935 | 6.8065 |  | 
18 | Cc1nc2cc3c(cc2n2cccc12)oc1ccccc13 [Compound 346212] | 5.376 | 5.7595 |  | 
19 | Oc1cccc(-c2ccc(-c3ccccc3)cc2)c1 [Compound 47145] |  | 5.16 | 3.4 | 
20 | O=C(OC1CC2CC1C1CC=CC21)c1ccc([N+](=O)[O-])cc1 (stereo not shown) [Compound 94582] | 17.83 | 17.458 |  | 
21 | COc1ccc2nc3cc(Cl)ccc3c(NCCCCN(C)C)c2c1.Cl [Compound 32929] |  | 5.76 | 0.35 | 

Row | SMILES | Activity 5 uM | Activity 10 uM | Activity 2.5 uM | Active or inactive N,N′-diarylurea (ternary complex assay) (designation in figure legend)
22 | Cc1ccc([P+](Cc2ccccc2)(c2ccccc2)c2ccc(C)cc2)cc1 [Compound 116685] | 1.9 | 4.5 |  | 
23 | [C-]#[O+].[C-]#[O+].[C-]#[O+].[C-]#[O+].[C-]#[O+].[CH]1[CH][CH][CH][CH]1.[CH]1[CH][CH][CH][CH]1.[Mo].[Mo].c1ccc(P(CCP(c2ccccc2)c2ccccc2)c2ccccc2)cc1 [Compound 635072] |  | 5.58 | 1.59 | 
24 | CSC(=Nc1ccccc1)/N=C(\SCc1ccccc1)N(C)C.I [Compound 622579] |  | 6.29 and 10.08 |  | 
25 | O=C(Nc1ccccc1F)C(Br)C(Br)c1ccccc1 (stereo not shown) [Compound 205548] |  | 4.01 | 2.94 | 
26 | O=c1[nH]cnc2nc(-c3ccc(N(CCCl)CCCl)cc3)[nH]c12 [Compound 87086] | 6.572 | 5.461 |  | 
27 | c1ccc(NNc2ccc3ccccc3n2)cc1 [Compound 1874] |  | 3.99 | 4.27 | 
28 | O=C(N/N=C/c1ccccc1[O-])c1ccccc1O.O=C(N/N=C/c1ccccc1[O-])c1ccccc1O.[Mn+2] [Compound 610051] |  | 9.23 | 1.52 | 
29 | c1ccc2c(O[Si](Oc3cccc4ccccc34)(Oc3cccc4ccccc34)Oc3cccc4ccccc34)cccc2c1 [Compound 401234] |  | 24.65 | 1 | 
30 | [O-][n+]1c2ccccc2nn1-c1ccc(N(CCCl)CCCl)cc1 [Compound 260514] |  | 3.87 | 1.94 | 
31 | CC(C)c1ccc(N=Nc2ccc(N(C)C)cc2)cc1 [Compound 170582] |  | 4.44 | 3.72 | 
32 | Cc1ccc2nc(-c3ccccc3N)[nH]c2c1 [Compound 163454] | 2.2 | 3.5 |  | 
33 | CCOC(=O)c1[nH]c(-c2ccc(OC)cc2)c(C(=O)OCC)c1-c1ccccc1 [Compound 157306] |  | 3.94 | 1.77 | 
34 | CC(=O)Oc1ccc(N(CCCl)CCCl)cc1OC(C)=O [Compound 130216] |  | 4.77 | 0.51 | 
35 | COc1ccc(Cc2cncc3c(O)c(OC)ccc23)cc1O [Compound 131747] |  | 3.25 | 2.54 | 
36 | Cc1ccc(S(=O)(=O)C(c2ccccc2)C(Br)C(=O)c2ccccc2)cc1 (stereo not shown) [Compound 280894] |  |  | 2.06 | 
37 | COc1ccc2c(n1)Sc1nc3ccccc3nc1N2 [Compound 367416] | 6.047 | 7.3545 |  | 
38 | S=P(Sc1ccccc1)(Sc1ccccc1)Sc1ccccc1 [Compound 65486] | 17.496 | 20.8755 |  | 
39 | CCN(CC)CCCNc1c2ccccc2nc2ccccc12.Cl.Cl [Compound 109326] |  | 17.89 | 0.69 | 
40 | CCCCCCCCCCCCCCCCCC[n+]1cccc(C(=O)c2ccccc2)c1.[Br-] [Compound 122844] |  | 13.27 | 1.77 | 
41 | CCN(CC)CCCNc1ncc(C)c2c1c1ccc3c(O)cccc3c1n2C [Compound 653438] |  | 12.32 | 0.755 | 
42 | C=CC(C)(C)c1c(OC(C)=O)cc2oc3c(OC(C)=O)c(OC(C)=O)cc(CC=C(C)C)c3c(=O)c2c1O [Compound 107229] |  | 3.14 | 1.06 | 

Row | SMILES | Activity 5 uM | Activity 10 uM | Activity 2.5 uM | Active or inactive N,N′-diarylurea (ternary complex assay) (designation in figure legend)
43 | COc1ccc2nc3c([N+](=O)[O-])ccc4c3c(c2c1)NCCN4CCO [Compound 658355] |  | 8.48 | 0.5 | 
44 | Clc1cccc2ccc(-c3cc4ccccc4s3)nc12 [Compound 71689] | 5.724 | 7.139 |  | 
45 | COc1ccc(C2(C)C(C#N)(C#N)C2(C#N)C#N)cc1 [Compound 98409] | 10.997 | 25.659 |  | 
46 | Cc1ccc(Sc2ccc3ccccc3n2)cc1 [Compound 340215] |  | 3.11 | 2.4 | 
47 | O=C1C(=O)c2ccccc2-c2ccccc21.O=C1C(=O)c2ccccc2-c2ccccc21.[Hg] [Compound 402785] |  |  | 50.88 | 
48 | CCCCCCCCCCCCCC[n+]1ccccc1.[Cl-] [Compound 82910] | 7.654 | 12.4425 |  | 
49 | Cc1cc2c(C(C)C)c(O)c(O)c(C=Nc3cc(C(F)(F)F)ccc3Cl)c2c(O)c1-c1c(C)cc2c(C(C)C)c(O)c(O)c(C=Nc3cc(C(F)(F)F)ccc3Cl)c2c1O [Compound 52531] |  | 5.18 | 0.8 | 
50 | C(=C\P(c1ccccc1)c1ccccc1)/P(c1ccccc1)c1ccccc1.F[C-](F)C(F)(F)C(F)(F)F.F[P-](F)(F)(F)(F)F.[CH]1[CH][CH][CH][CH]1.[Co+2] [Compound 633995] |  | 11.56 | 14.38 | 
51 | O=C1C=CC(=O)c2c1ccc1c3ccccc3n(CCCCCn3c4ccccc4c4ccc5c(c43)C(=O)C=CC5=O)c21 [Compound 668605] |  | 3.17 | 0.8 | 
52 | O=C1c2ccccc2C(=O)C2CC(c3ccccc3)=CCC12 (stereo not shown) [Compound 38062] |  | 5.58 | 2.61 | 
53 | COc1cc2c(cc1C[N+](C)(C)CSc1ccccc1)-c1ccccc1CC2.[Br-] [Compound 378135] |  | 3.15 | 1.75 | 
54 | CCCCCCCN1C(=O)C(O)(c2ccc(C3(O)C(=O)N(CCCCCCC)c4ccccc43)s2)c2ccccc21 (stereo not shown) [Compound 671896] |  | 4.31 | 0.85 | 
55 | O=C(CCl)Nc1ccc(O)c2ccccc12 [Compound 125369] |  | 9.98 | 1.08 | 
56 | c1ccc(Nc2nnc(-c3ccc4c(c3)OCO4)o2)cc1 [Compound 326181] | 5.584 | 7.027 |  | 
57 | [C-]#[O+].[C-]#[O+].[C-]#[O+].[CH3][Sn]([c]1ccccc1)[c]1ccccc1.[Co].c1ccc([PH+](c2ccccc2)c2ccccc2)cc1 [Compound 319697] |  |  | 3.1 | 
58 | [C-]#[N+]C1CCCCC1.[C-]#[N+]C1CCCCC1.[C-]#[N+]C1CCCCC1.[C-]#[N+]C1CCCCC1.[C-]#[N+]C1CCCCC1.[C-]#[N+]C1CCCCC1.[Mn] [Compound 231980] | 4.1 | 3.8 |  | 
59 | Oc1ccc(-c2nnc(-c3ccccc3)nn2)cc1 [Compound 171134] |  | 3.68 | 2.89 | 
60 | CC(C)=CCC1=CC(=O)c2ccccc2C1=O [Compound 123507] | 2.41 | 10.5 |  | 
61 | c1ccc(-c2cnn3c(-c4ccccc4)cnnc23)cc1 [Compound 355167] |  | 4.17 | 3.09 | 
62 | Cc1cccc(/C=N\NC(=S)N2CCCCC2)n1 [Compound 667875] |  | 7.27 | 4.59 | 
